Among the data in PMC4774911, “Biochemical Screening of Five Protein Kinases from Plasmodium falciparum against 14,000 Cell-Active Compounds” (PLoS ONE, 2016) are Kd values, retold here.

Where “and” joins values, the source holds several entries; their conditions need not be identical. Equal values may be shown once.

Targets include PIK3C3 (Homo sapiens, UniProt Q8NEB9); STK38 (Homo sapiens, UniProt Q15208); MAPK6 (Homo sapiens, UniProt Q16659).
What all share (assay): biochemical
Design in all cases: endogenous in cells; host or cells: K562 cell extract; species or system K562 (extract); replicate k of n = 2 (each experiment ID is one independent experiment; two experiment IDs per compound)
What all share (conditions): read-out: KDapp

The target of another test is T1, MASTL (Homo sapiens, UniProt Q96GX5).
T1 sequence (Q96GX5 1-879): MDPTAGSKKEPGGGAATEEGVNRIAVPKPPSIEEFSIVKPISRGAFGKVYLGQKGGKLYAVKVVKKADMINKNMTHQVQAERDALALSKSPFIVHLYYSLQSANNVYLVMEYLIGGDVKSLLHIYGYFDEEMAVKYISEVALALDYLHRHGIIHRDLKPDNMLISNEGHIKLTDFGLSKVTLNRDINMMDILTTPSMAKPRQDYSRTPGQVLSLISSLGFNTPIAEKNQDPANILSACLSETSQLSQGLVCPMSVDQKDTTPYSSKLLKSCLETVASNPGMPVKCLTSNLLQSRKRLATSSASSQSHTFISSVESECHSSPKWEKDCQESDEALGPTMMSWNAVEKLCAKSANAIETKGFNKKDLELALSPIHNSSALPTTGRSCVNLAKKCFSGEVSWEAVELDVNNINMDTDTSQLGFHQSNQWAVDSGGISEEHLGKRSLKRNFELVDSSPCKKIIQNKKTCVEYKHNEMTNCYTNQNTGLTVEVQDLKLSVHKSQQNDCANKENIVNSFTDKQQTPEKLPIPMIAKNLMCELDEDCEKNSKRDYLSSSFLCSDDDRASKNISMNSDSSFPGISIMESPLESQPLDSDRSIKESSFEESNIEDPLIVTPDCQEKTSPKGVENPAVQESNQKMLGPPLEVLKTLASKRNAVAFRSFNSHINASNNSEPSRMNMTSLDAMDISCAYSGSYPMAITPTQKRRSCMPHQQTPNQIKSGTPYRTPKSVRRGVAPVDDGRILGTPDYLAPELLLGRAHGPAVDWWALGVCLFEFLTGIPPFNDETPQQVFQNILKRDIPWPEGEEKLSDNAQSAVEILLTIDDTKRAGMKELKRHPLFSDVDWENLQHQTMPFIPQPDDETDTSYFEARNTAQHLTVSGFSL

Another test deals with T2, ACVR1 (Homo sapiens, UniProt Q04771).
T2 sequence (Q04771 1-509): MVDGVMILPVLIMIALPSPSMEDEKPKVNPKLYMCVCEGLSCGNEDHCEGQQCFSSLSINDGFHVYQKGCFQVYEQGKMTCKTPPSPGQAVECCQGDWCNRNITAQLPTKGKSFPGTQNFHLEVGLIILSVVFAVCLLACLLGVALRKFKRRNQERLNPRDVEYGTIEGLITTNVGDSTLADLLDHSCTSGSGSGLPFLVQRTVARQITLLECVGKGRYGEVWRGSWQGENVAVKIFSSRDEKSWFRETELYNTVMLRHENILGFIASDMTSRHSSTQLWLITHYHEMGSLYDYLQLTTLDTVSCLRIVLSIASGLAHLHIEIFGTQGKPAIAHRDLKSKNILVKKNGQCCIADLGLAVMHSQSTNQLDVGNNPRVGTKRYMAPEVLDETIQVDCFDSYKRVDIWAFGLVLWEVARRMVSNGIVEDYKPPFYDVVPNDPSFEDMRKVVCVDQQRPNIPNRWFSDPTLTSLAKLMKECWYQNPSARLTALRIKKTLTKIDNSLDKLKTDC

For another test, the target named is T3, PIP4K2C (Homo sapiens, UniProt Q8TBX8).
T3 sequence (Q8TBX8 1-421): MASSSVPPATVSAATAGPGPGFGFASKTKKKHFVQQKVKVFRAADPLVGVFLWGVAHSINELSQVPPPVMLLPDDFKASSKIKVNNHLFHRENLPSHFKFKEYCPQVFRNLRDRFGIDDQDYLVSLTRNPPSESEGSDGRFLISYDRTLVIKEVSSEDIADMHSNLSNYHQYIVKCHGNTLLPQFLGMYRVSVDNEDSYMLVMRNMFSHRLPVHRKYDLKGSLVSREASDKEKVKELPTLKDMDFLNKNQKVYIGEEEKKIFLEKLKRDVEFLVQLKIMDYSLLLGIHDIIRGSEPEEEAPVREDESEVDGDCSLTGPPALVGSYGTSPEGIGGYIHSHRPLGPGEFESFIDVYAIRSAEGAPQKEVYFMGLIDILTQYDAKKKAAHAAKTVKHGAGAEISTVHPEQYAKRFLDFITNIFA

Chain of STK38 (Q15208 whole entry): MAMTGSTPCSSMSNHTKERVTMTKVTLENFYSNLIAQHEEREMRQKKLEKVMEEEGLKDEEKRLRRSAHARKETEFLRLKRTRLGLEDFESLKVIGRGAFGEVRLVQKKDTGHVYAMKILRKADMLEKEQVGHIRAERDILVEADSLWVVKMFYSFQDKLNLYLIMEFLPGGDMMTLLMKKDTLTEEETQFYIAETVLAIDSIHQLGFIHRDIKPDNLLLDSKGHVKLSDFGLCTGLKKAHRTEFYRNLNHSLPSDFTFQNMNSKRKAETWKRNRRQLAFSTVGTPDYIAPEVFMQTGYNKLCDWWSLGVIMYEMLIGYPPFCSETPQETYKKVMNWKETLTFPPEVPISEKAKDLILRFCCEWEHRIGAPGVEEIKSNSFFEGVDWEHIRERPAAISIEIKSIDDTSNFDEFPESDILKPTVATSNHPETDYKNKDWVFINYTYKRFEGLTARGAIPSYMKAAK
Chain of PIK3C3 (Q8NEB9 whole entry): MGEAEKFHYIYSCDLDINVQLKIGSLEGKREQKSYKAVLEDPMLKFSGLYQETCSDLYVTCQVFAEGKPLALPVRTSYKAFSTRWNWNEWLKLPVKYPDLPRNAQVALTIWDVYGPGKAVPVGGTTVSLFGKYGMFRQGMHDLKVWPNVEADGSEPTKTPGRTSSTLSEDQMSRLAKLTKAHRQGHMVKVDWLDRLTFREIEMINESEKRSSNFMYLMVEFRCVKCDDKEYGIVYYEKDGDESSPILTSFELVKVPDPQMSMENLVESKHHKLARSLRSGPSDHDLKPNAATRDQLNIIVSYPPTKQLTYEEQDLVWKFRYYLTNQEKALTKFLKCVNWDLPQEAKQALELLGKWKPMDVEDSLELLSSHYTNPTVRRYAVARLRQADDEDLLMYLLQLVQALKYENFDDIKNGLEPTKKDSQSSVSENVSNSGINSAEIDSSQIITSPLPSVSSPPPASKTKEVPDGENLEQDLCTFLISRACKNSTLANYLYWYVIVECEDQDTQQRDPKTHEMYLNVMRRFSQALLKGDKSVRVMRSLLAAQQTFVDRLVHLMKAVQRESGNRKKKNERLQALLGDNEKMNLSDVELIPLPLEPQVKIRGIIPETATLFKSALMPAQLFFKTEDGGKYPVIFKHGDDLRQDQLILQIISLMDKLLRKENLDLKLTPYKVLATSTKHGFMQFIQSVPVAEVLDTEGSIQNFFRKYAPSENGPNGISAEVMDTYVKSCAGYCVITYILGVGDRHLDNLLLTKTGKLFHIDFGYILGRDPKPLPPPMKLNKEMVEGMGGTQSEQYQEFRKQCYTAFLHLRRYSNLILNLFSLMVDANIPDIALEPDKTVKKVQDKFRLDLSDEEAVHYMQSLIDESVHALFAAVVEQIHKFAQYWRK
Chain of MAPK6 (Q16659 whole entry): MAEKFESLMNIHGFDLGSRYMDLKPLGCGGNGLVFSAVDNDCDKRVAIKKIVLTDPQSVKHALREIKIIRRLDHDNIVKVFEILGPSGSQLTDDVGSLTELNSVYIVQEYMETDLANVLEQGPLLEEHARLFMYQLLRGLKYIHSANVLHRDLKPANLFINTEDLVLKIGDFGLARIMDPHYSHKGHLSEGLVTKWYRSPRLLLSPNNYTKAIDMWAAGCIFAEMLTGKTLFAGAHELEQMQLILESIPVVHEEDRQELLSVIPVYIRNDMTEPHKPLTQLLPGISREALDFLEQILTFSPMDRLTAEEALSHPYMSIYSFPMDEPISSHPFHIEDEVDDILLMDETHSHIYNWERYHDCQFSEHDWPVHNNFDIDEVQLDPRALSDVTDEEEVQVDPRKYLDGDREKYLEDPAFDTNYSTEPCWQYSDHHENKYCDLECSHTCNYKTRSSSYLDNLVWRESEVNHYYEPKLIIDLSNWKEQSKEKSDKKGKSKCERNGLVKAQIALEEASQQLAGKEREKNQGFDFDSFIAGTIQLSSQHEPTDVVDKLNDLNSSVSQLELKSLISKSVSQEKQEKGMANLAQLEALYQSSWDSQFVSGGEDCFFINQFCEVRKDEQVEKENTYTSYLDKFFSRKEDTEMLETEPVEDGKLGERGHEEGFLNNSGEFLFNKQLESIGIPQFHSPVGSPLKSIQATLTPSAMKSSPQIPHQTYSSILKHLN

As to `CN1CCN(c2ccc(Nc3ncc(C#N)c(Nc4ccccc4C(N)=O)n3)cc2)CC1.Cl` [TCMDC-134116], the Kd at MASTL is 274 nM and 597 nM; at ACVR1, 2200 nM; on PIP4K2C, 691 nM and 713 nM; on PIK3C3, 957 nM; at STK38, 306 nM and 253 nM.
As for `CN(C)CC(O)COc1ccc(Nc2ncc([N+](=O)[O-])c(Nc3ccccc3O)n2)cc1.O=C(O)C(F)(F)F` (stereo not drawn) [TCMDC-141399], the Kd at MAPK6 turned out to be 248 nM.
